We go through five molecules from US6989397B1, “Iron chelators and uses thereof” (University of Queensland, priority 1999, dated 2006).

Values joined by “and” are separate entries in the source; they are usually repeats but may differ in a detail not shown here. Equal entries are not always repeated.

For experiment [1], the system named is SK-N-MC neuroepithelioma cells. As to the kind of experiment: 3H-thymidine, 3H-leucine or 3H-uridine incorporation. In kind it is cell-based, human. The conditions noted are these: 20 hr with chelators 50 μM, DFO 100 μM, then label 2 h, Mean±SD. The procedure: Labelling of cells with ^3H-thymidine (20 Ci/mmol: Dupont NEN, MA, U.S.A.), ^3H-uridine (42.7 Ci/mmol/Dupont NEN, MA, U.S.A.) and ^3H-leucine (52 Ci/mmol: Dupont NEN) was estimated after precipitation with trichloroacetic acid (TCA). After a 20 hr incubation with the chelators, ^3H-leucine, ^3H-uridine or ^3H-thymidine (1 μCi/ml) were then added for 2 hrs at 37° C. Subsequently, petri dishes containing cell cultures were placed on ice and washed four times with ice-cold Hanks' balanced salt solution (BSS) and the cells detached from the plate using 1 mM EDTA in Ca/Mg-free saline. The cells were then pelleted by centrifugation, the supernatant removed and the pellet frozen at −70° C. After thawing the cells on ice, 1 ml of ice-cold 20% TCA was added and the solution then vortexed and kept on ice for 1 hr with periodic mixing. This solution was then centrifuged at 15,000 rpm for 15 mins at 4° C. and the supernatant removed. The pellet was then washed twice with 1 ml of ice-cold 10% TCA. The pellet was dissolved in 0.5 ml of 1 M NaOH and transferred to scintillation tubes with 3 ml of scintillant. Radioactivity was measured on a β-scintillation counter (LKB Wallace, Finland).
Table 3. The effect of the chelators on ^3H-thymidine, ^3H-leucine, or ^3H-uridine incorporation into SK-N-MC neuroepithelioma cells. Cells were incubated for 20 hr at 37° C. with either DFO (100 μM) or the other chelators (50 μM). Following this, either ^3H-thymidine, ^3H-leucine, or ^3H-uridine (1 μCi/mL) were added and the cells incubated for an additional 2 h at 37° C. (see Methods for details). Results are Mean±SD (4–5 determinations) from a typical experiment of 2–4 experiments performed.

Experiment [2] concerns 59Fe-loaded reticulocytes. In words: mobilisation of 59Fe from 59Fe-loaded reticulocytes (mitochondrial Fe overload model). The class given is cell-based, rabbit. The procedure:
FIG. 7. The effect of reincubation time with the Fe chelators on ^59Fe mobilization from ^59Fe-loaded reticulocytes. The cells were labelled with ^59Fe-transferrin (3.75 μM) in the presence of the heme synthesis inhibitor, succinylacetone (1 mM), and incubated with the cells for 1 h at 37° C. The ^59Fe-labelled reticulocytes were then incubated with the chelators (200 μM) for 15–240 min at 37° C. The results are Mean±SD (3 determinations) in a typical experiment of three performed.
FIG. 9. The effect of chelator concentration on ^59Fe mobilization from ^59Fe-loaded reticulocytes. The cells were labelled with ^59Fe-transferrin (3.75 μM) in the presence of the heme synthesis inhibitor, succinylacetone (1 mM), and incubated with the cells for 1 h at 37° C. The ^59Fe-labelled reticulocytes were then incubated with the chelators (10–200 μM) for 15–240 min at 37° C. The results are Mean±SD (3 determinations) in a typical experiment of three performed.
Reticulocytosis was induced by standard procedures (Richardson, D. R., Ponka, P and Vyoral, D (1996) Blood 87, 3477–3488) in New Zealand white rabbits by repeated phlebotomy by cardiac puncture using a protocol approved by the McGill University Animal Care Committee. Reticulocytes were identified based on staining with new methylene blue, and cell counts were determined using an improved Neubauer counting chamber.
Reticulocytes were obtained from chronically bled rabbits as described above and were incubated with 1 mM succinylacetone (SA: Sigma) to inhibit heme synthesis. After a 15 min preincubation in the presence of SA, ^59Fe-Tf ([…]) was added and incubated with the cells for 1 H at 37° C. with shaking. After this incubation the reticulocytes were washed three times with ice-cold PBS to remove non-specifically bound ^59Fe-Tf. The washed ^59Fe-labelled reticulocytes (30–35 μL) were incubated in buffered salt solution (250 μL final volume) with the apochelators. The SA was present in all incubations with the chelators to prevent the utilization of non-heme ^59Fe for heme synthesis. After the incubation, ^59Fe was measured both in washed reticulocytes and in the medium, and the percentage of ^59Fe mobilized from the reticulocytes was then calculated.

In a further experiment the test system is neuroblastoma (NB). Particulars: cited from earlier work.
Experiment [3] has as its system SK-N-MC neuroepithelioma cells. As to the kind of experiment: 59Fe release from prelabelled cells (iron efflux). The class given is cell-based, human. Particulars: chelators 0.5–50 μM, 'most effective' refers to concentrations up to 10 μM.
In experiment [4] the test system is SK-N-MC neuroepithelioma cells. As to the kind of experiment: internalized 59Fe uptake from 59Fe-transferrin. Particulars: chelators 0.5–50 μM, 3 hr, 'most effective' refers to concentrations up to 10 μM. The class given is cell-based, human.

`O=C(NN=Cc1c(O)ccc2ccccc12)c1ccncc1` [Chelator 311, 2-hydroxy-1-naphthylaldehyde isonicotinoyl hydrazone, reference compound]: in experiment [1], the “3H-Leucine incorporation, % Control” value is 2 % Control and 2 ± 0.3 % Control; the “3H-Thymidine incorporation, % Control” value is 0.1 % Control and 0.1 ± 0.1 % Control; the “3H-Uridine incorporation, % Control” value was 5 % Control and 5 ± 2 % Control.
With `CC(=O)N(O)CCCCCNC(=O)CCC(=O)N(O)CCCCCNC(=O)CCC(=O)N(O)CCCCCN` [DFO, desferrioxamine, reference compound], in experiment [1], the “3H-Leucine incorporation, % Control” value was 9 % Control and 9 ± 0.7 % Control; the “3H-Thymidine incorporation, % Control” value is 29 ± 13 % Control; the “3H-Uridine incorporation, % Control” value is 34 % Control and 34 ± 5 % Control. For the same molecule, the “effect on mobilizing 59Fe from 59Fe-loaded reticulocytes at high concentrations” value in experiment [2] (high concentrations up to 5 mM, activity similar to control medium) is “little effect”. Moreover, the “decrease in bone infiltration of tumor cells” value in the experiment with neuroblastoma (NB) (7 of 9 patients with neuroblastoma, 8 hr intravenous infusion) is more than 50%. Further, in the experiment with neuroblastoma (NB) (in 1 patient with neuroblastoma), the “decrease in tumor size” value was 48%.
`O=C(NN=Cc1ccco1)c1ccncc1` [FIH, 2furoylcarboxaldehyde isonicotinoyl hydrazone]: in experiment [1], the “3H-Leucine incorporation, % Control” value came out at 78 ± 5 % Control; the “3H-Thymidine incorporation, % Control” value was 17 ± 4 % Control; the “3H-Uridine incorporation, % Control” value worked out at 48 ± 10 % Control. Besides, the “cellular 59Fe released from 59Fe-loaded reticulocytes, 1 h reincubation (FIG. 9)” value in experiment [2] (chelator concentration 200 μM (range 10–200 μM), reincubated 1 h at 37° C., 3 determinations) was “very low activity”. Moreover, the “cellular 59Fe mobilized from 59Fe-loaded reticulocytes after 240 min” value in experiment [2] (chelators 200 μM, 240 min of incubation, FIG. 7) came out at 4%.
Take `O=C(NN=Cc1ccccn1)c1ccccc1` [PCBH, 2-pyridylcarboxaldehyde benzoyl hydrazone]: in experiment [1], the “3H-Leucine incorporation, % Control” value is listed as 30 ± 13 % Control; the “3H-Thymidine incorporation, % Control” value is 72 % Control and 72 ± 16 % Control; the “3H-Uridine incorporation, % Control” value was 31 ± 9 % Control.
Turning to `O=C(NN=Cc1ccccn1)c1cccs1` [PCTH, 2-pyridylcarboxaldehyde 2-thiophenecarboxyl hydrazone], the “efficacy at mobilizing 59Fe as a function of chelator concentration (FIG. 3A)” value in experiment [3] is recorded as “most effective chelators”. Besides, in experiment [1], the “3H-Leucine incorporation, % Control” value is on record as 21 ± 6 % Control; the “3H-Thymidine incorporation, % Control” value was 64 % Control and 64 ± 14 % Control; the “3H-Uridine incorporation, % Control” value is listed as 43 ± 2 % Control. The “efficacy at preventing 59Fe uptake from 59Fe-Tf as a function of chelator concentration (FIG. 3B)” value in experiment [4] is “most effective chelators”.
